Assay results from ChEMBL document CHEMBL5113401, “Novel 1,3,4-oxadiazole chalcogen analogues: Synthesis and cytotoxic activity” (Eur J Med Chem, 2022).
Activity calls are given as the source filed them. The rule behind the calls is not given here.

What was measured:
[1] = test system: MCF7; assay: Antiproliferative activity against human MCF7 cells assessed as inhibition of cell growth incubated for 48 hrs by XTT assay; assay type: functional, cell-based; details: MCF7, 48 h
[2] = test system: HeLa; assay: Antiproliferative activity against human HeLa cells assessed as inhibition of cell growth incubated for 48 hrs by XTT assay; assay type: functional, cell-based
[3] = test system: PC-3; assay: Antiproliferative activity against human PC-3 cells assessed as inhibition of cell growth incubated for 48 hrs by XTT assay; assay type: functional, cell-based; details: PC-3, 48 h
[4] = test system: HFF-1; assay: Cytotoxicity against HFF-1 cells assessed as reduction in cell viability at 1 to 2 uM incubated for 48 hrs by XTT assay; assay type: toxicity, cell-based; details: human, hff-1, 48 h, dose 1-2 µM
[5] = test system: NB1; assay: Cytotoxicity against human NB1 cells immortalized with hTERT plasmid assessed as reduction in cell viability at 1 to 2 uM incubated for 48 hrs by XTT assay; assay type: toxicity, cell-based; details: nb1, 48 h, dose 1-2 µM
[6] = test system: HeLa; assay: Inhibition of colony formation in human HeLa cells at IC50 incubated for 2 weeks with culture medium replacement for every 3 days by crystal violet staining based analysis; assay type: functional, cell-based
[7] = test system: PC-3; assay: Inhibition of colony formation in human PC-3 cells at IC50 incubated for 2 weeks with culture medium replacement for every 3 days by crystal violet staining based analysis; assay type: functional, cell-based
[8] = test system: HeLa; assay: Induction of cell cycle arrest in human HeLa cells assessed as accumulation of cells at G1 phase at 1 uM incubated for 6 hrs by FACS flow cytometry analysis (reference value: 69.94 +/- 1.71 %); assay type: functional
[9] = test system: HeLa; assay: Induction of cell cycle arrest in human HeLa cells assessed as accumulation of cells at S phase at 1 uM incubated for 6 hrs by FACS flow cytometry analysis (reference value: 17.41 +/- 0.96 %); assay type: functional
[10] = test system: HeLa; assay: Induction of cell cycle arrest in human HeLa cells assessed as accumulation of cells at G2/M phase at 1 uM incubated for 6 hrs by FACS flow cytometry analysis (reference value: 12.66 +/- 0.88 %); assay type: functional
[11] = test system: HeLa; assay: Induction of cell cycle arrest in human HeLa cells assessed as accumulation of cells at G1 phase at 1 uM incubated for 18 hrs by FACS flow cytometry analysis (reference value: 69.94 +/- 1.25 %); assay type: functional
[12] = test system: HeLa; assay: Induction of cell cycle arrest in human HeLa cells assessed as accumulation of cells at S phase at 1 uM incubated for 18 hrs by FACS flow cytometry analysis (reference value: 17.41 +/- 1.16 %); assay type: functional
[13] = test system: HeLa; assay: Induction of cell cycle arrest in human HeLa cells assessed as accumulation of cells at G2/M phase at 1 uM incubated for 18 hrs by FACS flow cytometry analysis (reference value: 12.66 +/- 0.92 %); assay type: functional
[14] = test system: PC-3; assay: Induction of cell cycle arrest in human PC-3 cells assessed as accumulation of cells at G1 phase at 1 uM incubated for 6 hrs by FACS flow cytometry analysis (reference value: 44.2 +/- 2.21 %); assay type: functional
[15] = test system: PC-3; assay: Induction of cell cycle arrest in human PC-3 cells assessed as accumulation of cells at S phase at 1 uM incubated for 6 hrs by FACS flow cytometry analysis (reference value: 35.06 +/- 1.85 %); assay type: functional
[16] = test system: PC-3; assay: Induction of cell cycle arrest in human PC-3 cells assessed as accumulation of cells at G2/M phase at 1 uM incubated for 6 hrs by FACS flow cytometry analysis (reference value: 20.74 +/- 1.93 %); assay type: functional
[17] = test system: PC-3; assay: Induction of cell cycle arrest in human PC-3 cells assessed as accumulation of cells at G1 phase at 1 uM incubated for 12 hrs by FACS flow cytometry analysis (reference value: 44.2 +/- 2.01 %); assay type: functional
[18] = test system: PC-3; assay: Induction of cell cycle arrest in human PC-3 cells assessed as accumulation of cells at S phase at 1 uM incubated for 12 hrs by FACS flow cytometry analysis (reference value: 35.06 +/- 1.36 %); assay type: functional
[19] = test system: PC-3; assay: Induction of cell cycle arrest in human PC-3 cells assessed as accumulation of cells at G2/M phase at 1 uM incubated for 12 hrs by FACS flow cytometry analysis (reference value: 20.74 +/- 1.95 %); assay type: functional
[20] = test system: HeLa; assay: Induction of cell cycle arrest in human HeLa cells assessed as accumulation of cells at G1 phase at 1 uM incubated for 12 hrs by FACS flow cytometry analysis (reference value: 69.94 %); assay type: functional
[21] = test system: HeLa; assay: Induction of cell cycle arrest in human HeLa cells assessed as accumulation of cells at S phase at 1 uM incubated for 12 hrs by FACS flow cytometry analysis (reference value: 17.41 %); assay type: functional
[22] = test system: HeLa; assay: Induction of cell cycle arrest in human HeLa cells assessed as accumulation of cells at G2/M phase at 1 uM incubated for 12 hrs by FACS flow cytometry analysis (reference value: 12.66 %); assay type: functional
[23] = test system: PC-3; assay: Induction of cell cycle arrest in human PC-3 cells assessed as accumulation of cells at G1 phase at 1 uM incubated for 18 hrs by FACS flow cytometry analysis (reference value: 44.2 %); assay type: functional
[24] = test system: PC-3; assay: Induction of cell cycle arrest in human PC-3 cells assessed as accumulation of cells at S phase at 1 uM incubated for 18 hrs by FACS flow cytometry analysis (reference value: 35.06 %); assay type: functional
[25] = test system: PC-3; assay: Induction of cell cycle arrest in human PC-3 cells assessed as accumulation of cells at G2/M phase at 1 uM incubated for 18 hrs by FACS flow cytometry analysis (reference value: 20.74 %); assay type: functional
[26] = molecular target: T1, Tubulin (Homo sapiens) (UniProt P68371+Q9H4B7+P0DPH7+P68366+Q13509+Q71U36+P04350+Q3ZCM7+P07437+P68363+Q9BQE3+Q6PEY2+Q13885+Q9BVA1+Q9BUF5); assay: Inhibition of tubulin polymerization in human HeLa cells assessed as irregular cell morphology at 0.5 uM incubated for 6 hrs by DAPI staining based fluorescence microscopic analysis
[27] = molecular target: T1, Tubulin (Homo sapiens); assay: Inhibition of tubulin polymerization in human HeLa cells assessed as aberrations in mitotic spindle and nucleus at 0.5 uM incubated for 6 hrs by DAPI staining based fluorescence microscopic analysis; assay type: cell-based
[28] = molecular target: T1, Tubulin (Homo sapiens); assay: Inhibition of tubulin polymerization in human HeLa cells assessed as abnormal microtubule network at 0.5 uM incubated for 6 hrs by DAPI staining based fluorescence microscopic analysis; assay type: cell-based
[29] = test system: HeLa; assay: Induction of apoptosis in human HeLa cells assessed as viable cells at 1 uM incubated for 24 hrs by Annexin V-FITC/7-AAD staining based flow cytometric analysis (reference value: 85.6 +/- 1.061%); assay type: functional; details: read-out: Activity
[30] = test system: HeLa; assay: Induction of apoptosis in human HeLa cells assessed as early apoptotic cells at 1 uM incubated for 24 hrs by Annexin V-FITC/7-AAD staining based flow cytometric analysis (reference value: 2.7 +/- 0.424 %); assay type: functional
[31] = test system: HeLa; assay: Induction of apoptosis in human HeLa cells assessed as late apoptotic cells at 1 uM incubated for 24 hrs by Annexin V-FITC/7-AAD staining based flow cytometric analysis (reference value: 11.1 +/- 0.778 %); assay type: functional
[32] = test system: HeLa; assay: Induction of apoptosis in human HeLa cells assessed as dead cells at 1 uM incubated for 24 hrs by Annexin V-FITC/7-AAD staining based flow cytometric analysis (reference value: 0.6 +/- 0.707 %); assay type: functional

SMILES: Cc1[nH]c2c(c1-c1nnc(-c3ccccc3)o1)Cc1ccccc1-2
- IC50 [1]: 1720 nM
- IC50 [2]: 68 nM
- IC50 [3]: 1660 nM
- Activity [4]: Non-Toxic
- Activity [5]: Non-Toxic
- inhibition [6]: Active
- inhibition [7]: Active
- Activity [8]: 16.81%
- Activity [9]: 63.32%
- Activity [10]: 20.86%
- Activity [11]: 1.48%
- Activity [12]: 8.43%
- Activity [13]: 90.18%
- Activity [14]: 8.34%
- Activity [15]: 53.05%
- Activity [16]: 38.61%
- Activity [17]: 0%
- Activity [18]: 18.48%
- Activity [19]: 81.52%
- Activity [20]: 3.54%
- Activity [21]: 55.05%
- Activity [22]: 41.41%
- Activity [23]: 1.71%
- Activity [24]: 5.86%
- Activity [25]: 92.97%
- inhibition [26]: Active
- inhibition [27]: Active
- inhibition [28]: Active
- viability at 1 µM [29]: 62.2%
- Activity [30]: 2.9%
- Activity [31]: 28.5%
- Activity [32]: 6.4%
